Data as given in US10660877B2 (BRISTOL-MYERS SQUIBB COMPANY, priority 2016, dated 2020).
Like-named read-outs stand apart in the source and are kept apart here.

Experiments:
[1] = target: human TLR7 (Homo sapiens (Human), UniProt Q9NYK1); assay: TLR7 inhibition reporter assay (HEK-Blue cells, SEAP reporter, gardiquimod stimulation); format: cell-based
[2] = target: human TLR8 (Homo sapiens (Human), UniProt Q9NR97); assay: TLR8 inhibition reporter assay (HEK-Blue cells, SEAP reporter, R848 stimulation);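 also: compounds tested from 0.05 nM to 50 µM, 22 h at 37 °C, SEAP measured with HEK-Blue Detection, inhibition relative to agonist plus DMSO versus a known inhibitor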
Description: TLR7/8/9 Inhibition Reporter Assays
(§1) Briefly, cells are seeded into Greiner 384 well plates (15000 cells per well for TLR7, 20,000 for TLR8 and 25,000 for TLR9) and then treated with test compounds in DMSO to yield a final dose response concentration range of 0.05 nM-50 μM. […] After a 22 hour incubation at 37° C., 5% CO2, SEAP levels are determined with the addition of HEK-Blue™ Detection reagent (Invivogen), a cell culture medium that allows for detection of SEAP, according to manufacturer's specifications. The percent inhibition is determined as the % reduction in the HEK-Blue signal present in wells treated with agonist plus DMSO alone compared to wells treated with a known inhibitor.

[3] = target: human TLR9 (Homo sapiens (Human), UniProt Q9NR96); assay: TLR9 inhibition reporter assay (HEK-Blue cells, SEAP reporter, ODN2006 stimulation);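 also: compounds tested over 0.05 nM to 50 µM, 22 h incubation, inhibition taken as SEAP signal drop from agonist plus DMSO wells toward a known inhibitor control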
Description: TLR7/8/9 Inhibition Reporter Assays
as §1

[4] = HEK-Blue cells overexpressing human TLR7, gardiquimod 7.5 μM
[5] = read-out: TLR8 IC50, HEK-Blue cells overexpressing human TLR8, R848 15.9 μM
[6] = read-out: TLR9 IC50, HEK-Blue cells overexpressing human TLR9, ODN2006 5 nM
[7] = HEK-Blue cells, gardiquimod 7.5 μM
[8] = read-out: TLR8 IC50, HEK-Blue cells, R848 15.9 μM
[9] = read-out: TLR9 IC50, HEK-Blue cells, ODN2006 5 nM

human TLR8, sequence (Q9NR97 27-1041): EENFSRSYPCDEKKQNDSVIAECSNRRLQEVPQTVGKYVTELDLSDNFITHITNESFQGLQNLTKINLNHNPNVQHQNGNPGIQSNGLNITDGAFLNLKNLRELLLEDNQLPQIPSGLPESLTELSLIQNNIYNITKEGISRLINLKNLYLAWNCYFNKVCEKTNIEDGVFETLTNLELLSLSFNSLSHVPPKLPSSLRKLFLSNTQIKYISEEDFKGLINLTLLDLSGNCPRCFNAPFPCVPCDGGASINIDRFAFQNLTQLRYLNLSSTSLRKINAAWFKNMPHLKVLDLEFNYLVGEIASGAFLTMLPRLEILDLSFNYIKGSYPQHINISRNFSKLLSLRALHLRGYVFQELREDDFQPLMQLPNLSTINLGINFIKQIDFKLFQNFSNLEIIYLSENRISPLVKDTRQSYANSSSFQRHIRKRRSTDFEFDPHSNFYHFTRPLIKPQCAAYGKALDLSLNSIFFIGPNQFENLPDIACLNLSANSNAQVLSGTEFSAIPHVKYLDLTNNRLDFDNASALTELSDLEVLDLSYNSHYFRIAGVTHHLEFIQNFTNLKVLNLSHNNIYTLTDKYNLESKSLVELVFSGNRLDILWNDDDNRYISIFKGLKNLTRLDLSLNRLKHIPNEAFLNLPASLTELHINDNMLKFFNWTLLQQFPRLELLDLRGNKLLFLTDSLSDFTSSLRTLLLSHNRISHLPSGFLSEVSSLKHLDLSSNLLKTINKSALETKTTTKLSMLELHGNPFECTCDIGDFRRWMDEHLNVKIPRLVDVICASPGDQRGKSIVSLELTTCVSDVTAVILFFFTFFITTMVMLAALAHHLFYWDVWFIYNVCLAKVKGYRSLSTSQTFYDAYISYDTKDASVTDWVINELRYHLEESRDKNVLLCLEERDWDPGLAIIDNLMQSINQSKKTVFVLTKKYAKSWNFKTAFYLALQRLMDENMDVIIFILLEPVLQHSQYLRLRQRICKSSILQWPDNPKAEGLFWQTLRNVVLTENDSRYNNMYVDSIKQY
human TLR7, sequence (Q9NYK1 27-1049): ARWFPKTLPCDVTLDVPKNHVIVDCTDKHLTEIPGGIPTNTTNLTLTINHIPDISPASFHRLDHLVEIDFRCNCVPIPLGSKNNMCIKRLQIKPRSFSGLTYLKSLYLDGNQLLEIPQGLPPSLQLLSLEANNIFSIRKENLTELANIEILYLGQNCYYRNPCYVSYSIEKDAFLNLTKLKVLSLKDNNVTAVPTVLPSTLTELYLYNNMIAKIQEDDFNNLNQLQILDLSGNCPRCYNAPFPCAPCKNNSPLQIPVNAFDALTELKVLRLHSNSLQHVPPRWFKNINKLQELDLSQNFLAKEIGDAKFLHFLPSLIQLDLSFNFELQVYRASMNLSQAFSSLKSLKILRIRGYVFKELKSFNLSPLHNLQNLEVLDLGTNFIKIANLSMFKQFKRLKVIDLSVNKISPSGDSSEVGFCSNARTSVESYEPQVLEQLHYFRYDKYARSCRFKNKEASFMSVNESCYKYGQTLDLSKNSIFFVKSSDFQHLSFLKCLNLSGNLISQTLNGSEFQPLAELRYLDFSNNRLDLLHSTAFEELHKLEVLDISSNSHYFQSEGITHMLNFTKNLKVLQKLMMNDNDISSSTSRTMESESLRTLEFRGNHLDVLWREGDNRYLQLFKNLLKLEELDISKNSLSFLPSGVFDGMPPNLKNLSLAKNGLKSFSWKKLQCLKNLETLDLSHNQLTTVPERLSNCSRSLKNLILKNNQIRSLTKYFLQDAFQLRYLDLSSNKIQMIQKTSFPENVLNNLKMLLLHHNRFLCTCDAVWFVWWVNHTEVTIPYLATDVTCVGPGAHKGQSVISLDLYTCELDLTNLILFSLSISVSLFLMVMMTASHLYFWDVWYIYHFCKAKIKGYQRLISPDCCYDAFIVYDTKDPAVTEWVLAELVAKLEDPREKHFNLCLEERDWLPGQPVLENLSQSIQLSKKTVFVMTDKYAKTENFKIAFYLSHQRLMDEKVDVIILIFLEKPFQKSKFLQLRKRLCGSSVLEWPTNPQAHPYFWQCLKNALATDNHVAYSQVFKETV
human TLR9, sequence (Q9NR96 26-1032): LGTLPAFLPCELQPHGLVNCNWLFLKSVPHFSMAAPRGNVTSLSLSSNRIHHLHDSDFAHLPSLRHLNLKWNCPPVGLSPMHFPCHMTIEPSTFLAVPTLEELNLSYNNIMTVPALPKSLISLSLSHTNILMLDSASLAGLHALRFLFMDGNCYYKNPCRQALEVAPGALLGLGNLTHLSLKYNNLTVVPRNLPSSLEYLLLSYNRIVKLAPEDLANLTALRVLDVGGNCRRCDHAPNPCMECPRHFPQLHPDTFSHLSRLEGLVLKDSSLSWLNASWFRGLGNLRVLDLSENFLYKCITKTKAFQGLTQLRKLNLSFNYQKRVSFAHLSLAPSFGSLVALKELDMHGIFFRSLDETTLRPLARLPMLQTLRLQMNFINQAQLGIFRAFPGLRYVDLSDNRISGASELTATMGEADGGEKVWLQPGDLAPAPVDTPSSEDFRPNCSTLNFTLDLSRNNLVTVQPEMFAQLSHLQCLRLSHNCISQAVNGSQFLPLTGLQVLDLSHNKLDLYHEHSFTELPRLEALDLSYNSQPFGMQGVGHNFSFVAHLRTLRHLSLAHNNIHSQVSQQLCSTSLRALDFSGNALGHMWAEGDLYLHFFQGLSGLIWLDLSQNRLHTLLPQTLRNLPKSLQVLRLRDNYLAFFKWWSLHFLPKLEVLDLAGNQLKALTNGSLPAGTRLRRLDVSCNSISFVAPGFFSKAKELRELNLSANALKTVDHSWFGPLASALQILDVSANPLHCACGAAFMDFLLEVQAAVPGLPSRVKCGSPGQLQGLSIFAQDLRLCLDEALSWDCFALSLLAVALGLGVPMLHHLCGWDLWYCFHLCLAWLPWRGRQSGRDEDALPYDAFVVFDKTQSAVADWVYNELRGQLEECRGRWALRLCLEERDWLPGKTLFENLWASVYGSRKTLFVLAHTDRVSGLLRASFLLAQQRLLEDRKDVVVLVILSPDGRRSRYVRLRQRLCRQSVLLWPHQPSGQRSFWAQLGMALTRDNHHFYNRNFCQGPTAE

| IC50 [1, 4] | IC50 [2, 5] | IC50 [3, 6] | IC50 ([2]; TLR8 IC50, HEK-Blue cells overexpressing human TLR8, R848 15.9 μM) | IC50 ([3]; TLR9 IC50, HEK-Blue cells overexpressing human TLR9, ODN2006 5 nM) | IC50 [1, 7] | IC50 [2, 8] | IC50 [3, 9] | SMILES |
| --- | --- | --- | --- | --- | --- | --- | --- | --- |
| 156 nM | 110 nM | 354 nM | – | – | – | – | – | CCc1c(-c2ccnc(N)c2)[nH]c2ccc([C@@H]3CCNC[C@@H]3F)cc12 [491-A] |
| 11.9 nM | 7 nM | 71 nM | – | – | – | – | – | Cc1cc(-c2[nH]c3ccc(C4CCNCC4)cc3c2C2CC2)ccn1 [Example 88, 3-cyclopropyl-2-(2-methylpyridin-4-yl)-5-(piperidin-4-yl)-1H-indole] |
| 0.8 nM | 2.8 nM | 156 nM | – | – | – | – | – | Cc1cc(-c2[nH]c3ccc(C4CCN(CCCN(C)C)CC4)cc3c2C(C)C)cc(C)n1 [Example 674, 3-(4-(2-(2,6-dimethylpyridin-4-yl)-3-isopropyl-1H-indol-5-yl)piperidin-1-yl)-N,N-dimethylpropan-1-amine] |
| 4.2 nM | 5.8 nM | 340 nM | – | – | – | – | – | Cc1cc(-c2[nH]c3ccc(C4CCN(C5CC(C)OC6(CC6)C5)CC4)cc3c2C(C)C)cc(C)n1 (stereo not drawn) [Example 456, 2-(2,6-dimethylpyridin-4-yl)-3-isopropyl-5-(1-(5-methyl-4-oxaspiro[2.5]octan-7-yl)piperidin-4-yl)-1H-indole] |
| 74.2 nM | 84.3 nM | 31600 nM | – | – | – | – | – | Cc1cc(-c2[nH]c3ccc(C4CCN(S(=O)(=O)c5cn(C)c(C)n5)CC4)cc3c2C(C)C)ccn1 [Example 553, 5-(1-((1,2-dimethyl-1H-imidazol-4-yl)sulfonyl)piperidin-4-yl)-3-isopropyl-2-(2-methylpyridin-4-yl)-1H-indole] |
| 8.1 nM | – | – | 3.5 nM | 3570 nM | – | – | – | CNCC(=O)N1CCC(c2ccc3[nH]c(-c4cc(C)ncc4C)c(C(C)C)c3c2)CC1 [Example 620, 1-(4-(2-(2,5-dimethylpyridin-4-yl)-3-isopropyl-1H-indol-5-yl)piperidin-1-yl)-2-(methylamino)ethan-1-one] |
| 10.8 nM | 5.2 nM | 1670 nM | – | – | – | – | – | Cc1cc(-c2[nH]c3ccc(C4CCN(C(=O)CN(C)C)CC4)cc3c2C(C)C)c(C)cn1 [Example 585, 2-(dimethylamino)-1-(4-(2-(2,5-dimethylpyridin-4-yl)-3-isopropyl-1H-indol-5-yl)piperidin-1-yl)ethan-1-one] |
| 14.5 nM | 5.1 nM | > 50000 nM | – | – | – | – | – | Cc1cc(-c2[nH]c3ccc(C4CCN(Cc5nncn5C)CC4)cc3c2C(C)C)c(F)cn1 [Example 737, 2-(5-fluoro-2-methylpyridin-4-yl)-3-isopropyl-5-(1-((4-methyl-4H-1,2,4-triazol-3-yl)methyl)piperidin-4-yl)-1H-indole] |
| 6.6 nM | 116 nM | > 50000 nM | – | – | – | – | – | Cc1cc(-c2[nH]c3ccc(C4CCN(C(=O)CCO)CC4)cc3c2C(C)C)cc(C)n1 [Example 117, 1-(4-(2-(2,6-dimethylpyridin-4-yl)-3-isopropyl-1H-indol-5-yl)piperidin-1-yl)-3-hydroxypropan-1-one] |
| – | – | – | – | – | 36.3 nM | 4.8 nM | 192 nM | Cc1cc(-c2[nH]c3ccc(C4CCN(Cc5cnc(C)[nH]5)CC4)cc3c2C(C)C)ccn1 [Example 821, 3-isopropyl-5-(1-((2-methyl-1H-imidazol-5-yl)methyl)piperidin-4-yl)-2-(2-methylpyridin-4-yl)-1H-indole] |
| 4070 nM | 3680 nM | 3990 nM | – | – | – | – | – | Cc1cc(-c2[nH]c3ccc(C4CCNCC4)cc3c2C(C)C)c(C#N)c(NCC2CC2)n1 [Example 32, 2-((cyclopropylmethyl)amino)-4-(3-isopropyl-5-(piperidin-4-yl)-1H-indol-2-yl)-6-methylnicotinonitrile] |
| 6.5 nM | 5.1 nM | 282 nM | – | – | – | – | – | Cc1cc(-c2[nH]c3ccc(C4CCN(CC5CCN(C)CC5)CC4)cc3c2C(C)C)ccn1 [Example 743, 3-isopropyl-5-(1-((1-methylpiperidin-4-yl)methyl)piperidin-4-yl)-2-(2-methylpyridin-4-yl)-1H-indole] |
| 64.5 nM | 437 nM | 11300 nM | – | – | – | – | – | Cc1cc(-c2[nH]c3ccc(C4CCN(C(=O)CN5CC(C(F)(F)F)C[C@@H]5CO)CC4)cc3c2C(C)C)cc(C)n1 (stereo partly drawn) [Example 404, 1-(4-(2-(2,6-dimethylpyridin-4-yl)-3-isopropyl-1H-indol-5-yl)piperidin-1-yl)-2-((2R)-2-(hydroxymethyl)-4-(trifluoromethyl)pyrrolidin-1-yl)ethan-1-one] |
| 19.8 nM | 136 nM | 2220 nM | – | – | – | – | – | CC(C)c1c(-c2cc(C3CC3)ncc2F)[nH]c2ccc(C3CCN(CC(=O)N(C)C)CC3)cc12 [Example 515, 2-(4-(2-(2-cyclopropyl-5-fluoropyridin-4-yl)-3-isopropyl-1H-indol-5-yl)piperidin-1-yl)-N,N-dimethylacetamide] |
| 6.4 nM | 15.5 nM | 192 nM | – | – | – | – | – | Cc1cc(-c2[nH]c3ccc(C4CCN(CC(=O)N5CCCCC5C)CC4)cc3c2C(C)C)cc(C)n1 (stereo not drawn) [Example 270, 2-(4-(2-(2,6-dimethylpyridin-4-yl)-3-isopropyl-1H-indol-5-yl)piperidin-1-yl)-1-(2-methylpiperidin-1-yl)ethan-1-one] |
| 5.5 nM | 73.4 nM | 41300 nM | – | – | – | – | – | Cc1cc(-c2[nH]c3ccc(C4CCN(C(=O)CN(C)CC(F)F)CC4)cc3c2C(C)C)cc(C)n1 [Example 422, 2-((2,2-difluoroethyl)(methyl)amino)-1-(4-(2-(2,6-dimethylpyridin-4-yl)-3-isopropyl-1H-indol-5-yl)piperidin-1-yl) ethan-1-one] |
| 12.1 nM | 2 nM | 6190 nM | – | – | – | – | – | Cc1cc(-c2[nH]c3ccc(C4CCN(Cc5cncs5)CC4)cc3c2C(C)C)c(F)cn1 [Example 688, 5-((4-(2-(5-fluoro-2-methylpyridin-4-yl)-3-isopropyl-1H-indol-5-yl)piperidin-1-yl)methyl)thiazole] |
| 1530 nM | 3250 nM | 6040 nM | – | – | – | – | – | Cc1ccc(OC(=O)N2CCC(c3ccc4[nH]c(-c5ccnc(C)c5)c(C(C)C)c4c3)CC2)cc1 [Example 557, p-Tolyl 4-(3-isopropyl-2-(2-methylpyridin-4-yl)-1H-indol-5-yl)piperidine-1-carboxylate] |
| 536 nM | 3140 nM | 122 nM | – | – | – | – | – | Cc1cc(-c2cc3cc(C4CCNCC4)ccc3[nH]2)cc(C)n1 [Example 94, 2-(2,6-dimethylpyridin-4-yl)-5-(piperidin-4-yl)-1H-indole] |
| 2.7 nM | 13.1 nM | 266 nM | – | – | – | – | – | Cc1cc(-c2[nH]c3ccc(C4CCN(C(=O)C5CCN(C(C)C)CC5)CC4)cc3c2C(C)C)cc(C)n1 [Example 497, (4-(2-(2,6-dimethylpyridin-4-yl)-3-isopropyl-1H-indol-5-yl)piperidin-1-yl)(1-isopropylpiperidin-4-yl)methanone] |
| – | – | – | – | – | 2.3 nM | 1.7 nM | 398 nM | Cc1cc(-c2[nH]c3ccc(C4CCN(CC(C)(C)O)CC4)cc3c2C(C)C)cc(C)n1 [Example 848, 1-(4-(2-(2,6-dimethylpyridin-4-yl)-3-isopropyl-1H-indol-5-yl)piperidin-1-yl)-2-methylpropan-2-ol] |
| 120 nM | 269 nM | > 50000 nM | – | – | – | – | – | Cc1cc(-c2[nH]c3ccc(C4CCN(C(=O)CC(F)(F)F)CC4)cc3c2C(C)C)ccn1 [Example 600, 3,3,3-trifluoro-1-(4-(3-isopropyl-2-(2-methylpyridin-4-yl)-1H-indol-5-yl)piperidin-1-yl)propan-1-one] |
| 4.4 nM | 17.5 nM | 514 nM | – | – | – | – | – | Cc1cc(-c2[nH]c3ccc(C4CCN(C(=O)CN5CCCCC5C)CC4)cc3c2C(C)C)cc(C)n1 (stereo not drawn) [Example 377, 1-(4-(2-(2,6-dimethylpyridin-4-yl)-3-isopropyl-1H-indol-5-yl)piperidin-1-yl)-2-(2-methylpiperidin-1-yl)ethan-1-one] |
| 0.6 nM | 9.3 nM | 213 nM | – | – | – | – | – | Cc1cc(-c2[nH]c3ccc(C4CCN(C(=O)C(C)(C)N)CC4)cc3c2C(C)C)cc(C)n1 [Example 194, 2-amino-1-(4-(2-(2,6-dimethylpyridin-4-yl)-3-isopropyl-1H-indol-5-yl)piperidin-1-yl)-2-methylpropan-1-one] |
| 2.4 nM | 3.5 nM | 566 nM | – | – | – | – | – | Cc1cc(-c2[nH]c3ccc(C4CCN(CC(C)O)CC4)cc3c2C(C)C)cc(C)n1 (stereo not drawn) [Example 331, 1-(4-(2-(2,6-dimethylpyridin-4-yl)-3-isopropyl-1H-indol-5-yl)piperidin-1-yl)propan-2-ol] |
| 220 nM | 731 nM | > 50000 nM | – | – | – | – | – | Cc1cc(-c2[nH]c3ccc(C4CCN(S(=O)(=O)Cc5ccccc5)CC4)cc3c2C(C)C)ccn1 [Example 556, 5-(1-(benzylsulfonyl)piperidin-4-yl)-3-isopropyl-2-(2-methylpyridin-4-yl)-1H-indole] |
| 1.2 nM | 16.2 nM | 195 nM | – | – | – | – | – | Cc1cc(-c2[nH]c3ccc(C4CCN(C(=O)[C@@H]5C[C@H](F)CN5)CC4)cc3c2C(C)C)cc(C)n1 [Example 196, (4-(2-(2,6-dimethylpyridin-4-yl)-3-isopropyl-1H-indol-5-yl)piperidin-1-yl)((2S,4S)-4-fluoropyrrolidin-2-yl)methanone] |
| 247 nM | 607 nM | 10400 nM | – | – | – | – | – | CCOC(=O)N1CCC(c2ccc3[nH]c(-c4ccnc(C)c4)c(C(C)C)c3c2)CC1 [Example 560, ethyl 4-(3-isopropyl-2-(2-methylpyridin-4-yl)-1H-indol-5-yl)piperidine-1-carboxylate] |
